Laboratory results as given in patent publication US10508109B2 (priority 2015, dated 2019).
Where a name gives a salt, the structure may show the parent alone. Read-outs that look alike come from different tables or passages of the source.

How the values were obtained:
SUV39H2 = SUV39H2 (Homo sapiens (Human), UniProt Q9H5I1); details: read-out: IC50 (μM) Suv 39H2 assay
HFL1 = test: Cell-based assay, anti-proliferative activity (Cell Counting Kit-8, 72 hours); details: Homo sapiens, read-out: IC50 (μM) HFL1
Description: (§1) Active candidate inhibitors against SUV39H2 were evaluated for their target-specific cytotoxicity using A549, HCT-116, HFL1, CCD-18Co and PC14. 100 micro-L of cell suspension was seeded onto 96-well microtiter plate (ViewPlate-96FTC, PerkinElmer). The initial cell concentration of A549, HCT-116, HFL1, CCD-18Co and PC14 were 3,000 cells/well, 2,000 cells/well and 2,500 cells/well, respectively. Cellular growth was determined using Cell Counting Kit-8 (DOJINDO) at 72 hours after the exposure of the candidate inhibitors. IC50 was used as an indicator of the anti-proliferative activity of the inhibitors, and calculated by serial dilution method (0, 1.5625, 3.125, 6.25, 12.5, 25, 50, and 100 micro-M). Accurate IC50 values were calculated as described previously.

CCD-18Co = test: as above; details: Homo sapiens, read-out: IC50 (μM) CCD-18Co
Description: as §1

HCT-116 = test: as above; details: Homo sapiens, read-out: IC50 (μM) HCT-116
Description: as §1

A549 = test: as above; details: Homo sapiens
Description: 100 micro-L of cell suspension was seeded onto 96-well microtiter plate (ViewPlate-96FTC, PerkinElmer). […] Cellular growth was determined using Cell Counting Kit-8 (DOJINDO) at 72 hours after the exposure of the candidate inhibitors. […] Accurate IC50 values were calculated as described previously.

[1] = A549, 72 h, read-out: IC50 (μM) A549
[2] = HFL1 cells, Cell Counting Kit-8, 72 hours
[3] = CCD-18Co cells, Cell Counting Kit-8, 72 hours
[4] = HCT-116 cells, Cell Counting Kit-8, 72 hours
[5] = A549 cells, Cell Counting Kit-8, 72 hours, read-out: IC50 (μM) A549
[6] = A549 cells, 72 hours exposure, Cell Counting Kit-8, read-out: A549 IC50

Chain of SUV39H2 (Q9H5I1 whole entry): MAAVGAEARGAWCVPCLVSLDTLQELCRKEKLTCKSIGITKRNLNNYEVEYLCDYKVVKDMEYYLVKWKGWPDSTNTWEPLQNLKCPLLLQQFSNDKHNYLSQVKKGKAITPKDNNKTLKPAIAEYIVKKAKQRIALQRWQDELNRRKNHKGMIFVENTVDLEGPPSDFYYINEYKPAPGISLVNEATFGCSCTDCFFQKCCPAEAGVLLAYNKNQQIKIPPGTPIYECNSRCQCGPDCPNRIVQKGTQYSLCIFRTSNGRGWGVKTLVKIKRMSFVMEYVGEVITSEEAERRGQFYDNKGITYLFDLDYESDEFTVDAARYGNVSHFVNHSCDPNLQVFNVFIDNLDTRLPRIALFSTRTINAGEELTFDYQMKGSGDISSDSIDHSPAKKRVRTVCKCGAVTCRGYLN

3-amino-N-(3-(2-(5-bromo-2,4-dimethoxyphenyl)imidazo[1,2-a]pyrimidin-7-yl)cyclopentyl)propanamide hydrochloride [Example 68]
IC50 (SUV39H2; enzyme assay): 0.0162 µM

COc1cc(OC)c(-c2cn3ccc(N4CCCC4)cc3n2)cc1Br [Example 1, 2-(5-bromo-2,4-dimethoxyphenyl)-7-(pyrrolidin-1-yl)imidazo[1,2-a]pyridine]
IC50 (SUV39H2; enzyme assay): 0.0182 µM
IC50 (HFL1; HFL1, 72 h): 1.6 µM
IC50 (CCD-18Co; CCD-18Co, 72 h): 2.6 µM
IC50 (HCT-116; HCT-116, 72 h): 1.7 µM
IC50 (A549; [1]): 2.5 µM

COc1cc(OC)c(-c2cn3ccc(N)nc3n2)cc1Br [Example 2, 2-(5-bromo-2,4-dimethoxyphenyl)imidazo[1,2-a]pyrimidin-7-amine hydrochloride]
IC50 (SUV39H2): 0.0169 µM
IC50 (HFL1; HFL1, 72 h): 16 µM
IC50 (CCD-18Co; CCD-18Co, 72 h): 16 µM
IC50 (HCT-116; HCT-116, 72 h): 17 µM
IC50 (A549; [1]): 18 µM

COc1cc(OC)c(-c2cn3ccc(N)cc3n2)cc1Br [Example 5, 2-(5-bromo-2,4-dimethoxyphenyl)imidazo[1,2-a]pyridin-7-amine]
IC50 (SUV39H2; enzyme assay): 0.0103 µM
IC50 (HFL1; [2]): 2.1 µM
IC50 (CCD-18Co; [3]): 3.8 µM
IC50 (HCT-116; [4]): 3.1 µM
IC50 (A549; [5]): 3.6 µM

COc1cc(OC)c(-c2cn3ccc(N)nc3n2)cc1Cl [Example 8, 2-(5-chloro-2,4-dimethoxyphenyl)imidazo[1,2-a]pyrimidin-7-amine]
IC50 (SUV39H2; enzyme assay): 0.0182 µM
IC50 (HFL1; [2]): 21 µM
IC50 (CCD-18Co; [3]): 19 µM
IC50 (HCT-116; [4]): 16 µM
IC50 (A549; [5]): 17 µM

COc1cc(OC)c(-c2cn3ccc(NCCN)cc3n2)cc1Cl [Example 10, N^1-(2-(5-chloro-2,4-dimethoxyphenyl)imidazo[1,2-a]pyridin-7-yl)ethane-1,2-diamine dihydrochloride]
IC50 (SUV39H2): 0.015 µM
IC50 (HFL1; HFL1, 72 h): 3.7 µM
IC50 (CCD-18Co; CCD-18Co, 72 h): 7.1 µM
IC50 (HCT-116; HCT-116, 72 h): 4.2 µM
IC50 (A549; [1]): 6.8 µM

COc1cc(OC)c(-c2cn3ccc(N4CCC(NC(=O)OC(C)(C)C)C4)nc3n2)cc1Br (stereo not shown) [Example 13]
IC50 (SUV39H2; enzyme assay): 0.0219 µM
IC50 (HFL1; [2]): 3.7 µM
IC50 (CCD-18Co; [3]): 4.4 µM
IC50 (HCT-116; [4]): 6.6 µM
IC50 (A549; [5]): 5.7 µM

COc1cc(OC)c(-c2cn3ccc(N4CCC(NC(=O)OC(C)(C)C)CC4)cc3n2)cc1Cl [Example 14, tert-butyl {1-[2-(5-chloro-2,4-dimethoxyphenyl)imidazo[1,2-a]pyridin-7-yl]piperidin-4-yl}carbamate]
IC50 (SUV39H2; enzyme assay): 0.0341 µM
IC50 (HFL1; [2]): 1.8 µM
IC50 (CCD-18Co; [3]): 1.9 µM
IC50 (HCT-116; [4]): 2 µM
IC50 (A549; [5]): 2.7 µM

COc1cc(OC)c(-c2cn3ccc(N4CCC(N)CC4)cc3n2)cc1Cl [Example 15, 1-[2-(5-chloro-2,4-dimethoxyphenyl)imidazo[1,2-a]pyridin-7-yl]piperidin-4-amine]
IC50 (SUV39H2; enzyme assay): 0.0133 µM
IC50 (HFL1; [2]): 2.7 µM
IC50 (CCD-18Co; [3]): 6.7 µM
IC50 (HCT-116; [4]): 3.4 µM
IC50 (A549; [5]): 3.5 µM

COc1cc(OC)c(-c2cn3ccc(N4CCC(CN)CC4)cc3n2)cc1Cl [Example 16, (1-(2-(5-Chloro-2,4-dimethoxyphenyl)imidazo[1,2-a]pyridin-7-yl)piperidin-4-yl)-methanamine hydrochloride]
IC50 (SUV39H2): 0.0122 µM
IC50 (HFL1; HFL1, 72 h): 11 µM
IC50 (CCD-18Co; CCD-18Co, 72 h): 14 µM
IC50 (HCT-116; HCT-116, 72 h): 8.7 µM
IC50 (A549; [1]): 8.8 µM

COc1cc(OC)c(-c2cn3ccc(N4CCNCC4)cc3n2)cc1Cl [Example 17, 2-(5-chloro-2,4-dimethoxyphenyl)-7-(piperazin-1-yl)imidazo[1,2-a]pyridine]
IC50 (SUV39H2; enzyme assay): 0.0195 µM
IC50 (HFL1; [2]): 3.3 µM
IC50 (CCD-18Co; [3]): 8.6 µM
IC50 (HCT-116; [4]): 4.5 µM
IC50 (A549; [5]): 6.1 µM

COc1cc(OC)c(-c2cn3ccc(NCCNC(=O)OC(C)(C)C)nc3n2)cc1Br [Example 18, tert-butyl (2-((2-(5-bromo-2,4-dimethoxyphenyl)imidazo[1,2-a]pyrimidin-7-yl)amino)ethyl)carbamate]
IC50 (SUV39H2; enzyme assay): 0.0884 µM
IC50 (HFL1; [2]): 11 µM
IC50 (CCD-18Co; [3]): 12 µM
IC50 (HCT-116; [4]): 13 µM
IC50 (A549; [5]): 14 µM

COc1cc(OC)c(-c2cn3ccc(N4CCC(N)C4)nc3n2)cc1Br (stereo not shown) [Example 19, hydrochloride]
IC50 (SUV39H2): 0.0292 µM
IC50 (HFL1; HFL1, 72 h): 4.2 µM
IC50 (CCD-18Co; CCD-18Co, 72 h): 16 µM
IC50 (HCT-116; HCT-116, 72 h): 7.9 µM
IC50 (A549; [1]): 11 µM

COc1cc(OC)c(-c2cn3ccc(O)cc3n2)cc1Cl [Example 20, 2-(5-chloro-2,4-dimethoxyphenyl)imidazo[1,2-a]pyridin-7-ol]
IC50 (SUV39H2; enzyme assay): 0.09 µM

COc1cc(OC)c(-c2cn3ccc(N4CCC(NC(N)=O)C4)cc3n2)cc1Cl (stereo not shown) [Example 38, 1-(1-(2-(5-chloro-2,4-dimethoxyphenyl)imidazo[1,2-a]pyridin-7-yl)pyrrolidin-3-yl)urea]
IC50 (SUV39H2; enzyme assay): 0.00411 µM

COc1cc(OC)c(-c2cn3ccc(N4CCC(NC(=O)[C@H](CCC(N)=O)NC(=O)OC(C)(C)C)C4)cc3n2)cc1Cl (stereo partly drawn) [Example 39, tert-butyl ((2S)-5-amino-1-((1-(2-(5-chloro-2,4-dimethoxyphenyl)imidazo[1,2-a]pyridin-7-yl)pyrrolidin-3-yl)amino)-1,5-dioxopentan-2-yl)carbamate]
IC50 (SUV39H2; enzyme assay): 0.00489 µM

COc1cc(OC)c(-c2cn3ccc(N)nc3n2)cc1C#N [Example 46, 5-(7-aminoimidazo[1,2-a]pyrimidin-2-yl)-2,4-dimethoxybenzonitrile]
IC50 (SUV39H2; enzyme assay): 0.0453 µM

COc1cc(OC)c(-c2cn3ccc(N4CCC(NC(=O)CCN)C4)cc3n2)cc1Cl (stereo not shown) [Example 50, 3-amino-N-(1-(2-(5-chloro-2,4-dimethoxyphenyl)imidazo[1,2-a]pyridin-7-yl)pyrrolidin-3-yl)propanamide]
IC50 (SUV39H2; enzyme assay): 0.00575 µM

COc1cc(OC)c(-c2cn3ccc(N4CCC(NC(=O)NCCN)C4)cc3n2)cc1Cl (stereo not shown) [Example 62, 1-(2-aminoethyl)-3-(1-(2-(5-chloro-2,4-dimethoxyphenyl)imidazo[1,2-a]-pyridin-7-yl)pyrrolidin-3-yl)urea]
IC50 (SUV39H2; enzyme assay): 0.00514 µM

COc1cc(OC)c(-c2cn3ccc(NCCN4CCCCC4)cc3n2)cc1Cl [Example 64, 2-(5-chloro-2,4-dimethoxyphenyl)-N-(2-(piperidin-1-yl)ethyl)imidazo[1,2-a]pyridine-7-amine]
IC50 (HFL1; HFL1, 72 h): 2.6 µM
IC50 (CCD-18Co; CCD-18Co, 72 h): 4.5 µM
IC50 (HCT-116; HCT-116, 72 h): 3.4 µM
IC50 (A549; [1]): 4.2 µM

COc1cc(OC)c(-c2cn3ccc(N4CCCC4)nc3n2)cc1C#N [Example 69, 2,4-dimethoxy-5-(7-(pyrrolidin-1-yl)imidazo[1,2-a]pyrimidin-2-yl)-benzonitrile hydrochloride]
IC50 (SUV39H2): 0.0141 µM

COc1cc(OC)c(-c2cn3ccc(C)cc3n2)cc1Cl [Example 76, 2-(5-chloro-2,4-dimethoxyphenyl)-7-methylimidazo[1,2-a]pyridine hydrobromide]
IC50 (SUV39H2; enzyme assay): 0.0665 µM

COc1cc(OC)c(-c2cn3ccc(N4CCN(CCC(=O)O)CC4)cc3n2)cc1Cl [Example 133, 3-(4-(2-(5-chloro-2,4-dimethoxyphenyl)imidazo[1,2-a]pyridin-7-yl)piperazin-1-yl)propanoic acid]
IC50 (SUV39H2; enzyme assay): 0.0137 µM

COc1cc(OC)c(-c2cn3ccc(C4=CCN(CCC(=O)O)CC4)cc3n2)cc1Cl [Example 141, 3-(4-(2-(5-chloro-2,4-dimethoxyphenyl)imidazo[1,2-a]pyridin-7-yl)-5,6-dihydropyridin-1(2H)-yl)propanoic acid]
IC50 (SUV39H2; enzyme assay): 0.0777 µM

COCC(=O)N1CCN(c2ccn3cc(-c4cc(Cl)c(OC)cc4OC)nc3c2)C(C)C1 (stereo not shown) [Example 313, 1-(4-(2-(5-chloro-2,4-dimethoxyphenyl)imidazo[1,2-a]pyridin-7-yl)-3-methylpiperazin-1-yl)-2-methoxyethanone]
IC50 (A549; [6]): 10 µM

COc1cc(OC)c(-c2cn3ccc(N4CCN(c5cnc(N6CCNCC6)nc5)CC4)cc3n2)cc1Cl [Example 344, 2-(5-chloro-2,4-dimethoxyphenyl)-7-(4-(2-(piperazin-1-yl)pyrimidin-5-yl)piperazin-1-yl)imidazo[1,2-a]pyridine bis(2,2,2-trifluoroacetate)]
IC50 (A549; [6]): 0.35 µM

COC(=O)c1ccc(CN[C@H]2CC[C@@H](Nc3ccn4cc(-c5cc(Cl)c(OC)cc5OC)nc4c3)CC2)cc1 [Example 409, methyl 4-(((cis-4-((2-(5-chloro-2,4-dimethoxyphenyl)imidazo[1,2-a]pyridin-7-yl)amino)cyclohexyl)amino)methyl)benzoate bis(2,2,2-trifluoroacetate)]
IC50 (A549; [6]): 0.86 µM

COc1cc(OC)c(-c2cn3ccc(N4CC[C@H](NCC5CCN(S(=O)(=O)C6CC6)CC5)C4)cc3n2)cc1Cl [Example 421, (S)-1-(2-(5-chloro-2,4-dimethoxyphenyl)imidazo[1,2-a]pyridin-7-yl)-N-((1-(cyclopropylsulfonyl)piperidin-4-yl)methyl)pyrrolidin-3-amine]
IC50 (A549; [6]): 0.94 µM
